# Measurements taken from PubChem BioAssay (NCI).
#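 Exposure lasted 48 hours, with cells grown in 96-well plates and compounds tested at five concentrations. GI50 is the concentration that inhibits growth by half. TGI denotes the concentration required for complete inhibition of growth.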 Peptide text beside a SMILES is read from it.
# System: RPMI-8226 leukemia
# Assay: inhibition of tumour cell growth, NCI panel, 48 h
SMILES,GI50,TGI
C=C(C)[C@@H]1CC[C@]2(CO)CC[C@]3(C)[C@H](CC[C@@H]4[C@@]5(C)C=C(C#N)C(=O)C(C)(C)[C@@H]5CC[C@]43C)[C@@H]12,0.809 µM,3.86 µM
S=c1ssc(N2CCOCC2)c1Cl,23.3 µM,69.2 µM
COc1ccc(/C=C/c2c(C(=O)/C=C/c3ccccc3)c(C)nc3ccccc23)cc1,1.74 µM,5.54 µM

# System: RXF 393 renal
# Assay: inhibition of tumour cell growth, NCI panel, 48 h
SMILES,TGI,GI50
Oc1c(N2CCOCC2)cc(-c2cc(N3CCOCC3)c(O)c3ccccc23)c2ccccc12,6.03 µM,–
C=C(C)[C@@H]1CC[C@]2(CO)CC[C@]3(C)[C@H](CC[C@@H]4[C@@]5(C)C=C(C#N)C(=O)C(C)(C)[C@@H]5CC[C@]43C)[C@@H]12,2.76 µM,1.13 µM
S=c1ssc(N2CCOCC2)c1Cl,> 100 µM,36 µM
COc1ccc(/C=C/c2c(C(=O)/C=C/c3ccccc3)c(C)nc3ccccc23)cc1,3.04 µM,1.63 µM

# System: SK-MEL-5 melanoma
# Assay: inhibition of tumour cell growth, NCI panel, 48 h
SMILES,TGI,GI50
Oc1c(N2CCOCC2)cc(-c2cc(N3CCOCC3)c(O)c3ccccc23)c2ccccc12,3.35 µM,–
C=C(C)[C@@H]1CC[C@]2(CO)CC[C@]3(C)[C@H](CC[C@@H]4[C@@]5(C)C=C(C#N)C(=O)C(C)(C)[C@@H]5CC[C@]43C)[C@@H]12,2.52 µM,1.2 µM
S=c1ssc(N2CCOCC2)c1Cl,30 µM,16.5 µM
COc1ccc(/C=C/c2c(C(=O)/C=C/c3ccccc3)c(C)nc3ccccc23)cc1,3.13 µM,1.73 µM

# System: SK-MEL-2 melanoma
# Assay: inhibition of tumour cell growth, NCI panel, 48 h
SMILES,TGI,GI50
Oc1c(N2CCOCC2)cc(-c2cc(N3CCOCC3)c(O)c3ccccc23)c2ccccc12,8.29 µM,–
C=C(C)[C@@H]1CC[C@]2(CO)CC[C@]3(C)[C@H](CC[C@@H]4[C@@]5(C)C=C(C#N)C(=O)C(C)(C)[C@@H]5CC[C@]43C)[C@@H]12,4.59 µM,1.91 µM
S=c1ssc(N2CCOCC2)c1Cl,> 100 µM,> 100 µM
COc1ccc(/C=C/c2c(C(=O)/C=C/c3ccccc3)c(C)nc3ccccc23)cc1,5.06 µM,2.11 µM

# System: TK-10 renal
# Assay: inhibition of tumour cell growth, NCI panel, 48 h
SMILES,TGI,GI50
Oc1c(N2CCOCC2)cc(-c2cc(N3CCOCC3)c(O)c3ccccc23)c2ccccc12,28.9 µM,–
C=C(C)[C@@H]1CC[C@]2(CO)CC[C@]3(C)[C@H](CC[C@@H]4[C@@]5(C)C=C(C#N)C(=O)C(C)(C)[C@@H]5CC[C@]43C)[C@@H]12,6.06 µM,2.09 µM
S=c1ssc(N2CCOCC2)c1Cl,> 100 µM,16 µM
COc1ccc(/C=C/c2c(C(=O)/C=C/c3ccccc3)c(C)nc3ccccc23)cc1,5.73 µM,2.55 µM

# System: SW-620 colon
# Assay: inhibition of tumour cell growth, NCI panel, 48 h
SMILES,TGI,GI50
Oc1c(N2CCOCC2)cc(-c2cc(N3CCOCC3)c(O)c3ccccc23)c2ccccc12,6.34 µM,–
C=C(C)[C@@H]1CC[C@]2(CO)CC[C@]3(C)[C@H](CC[C@@H]4[C@@]5(C)C=C(C#N)C(=O)C(C)(C)[C@@H]5CC[C@]43C)[C@@H]12,5.12 µM,2.24 µM
COc1ccc(/C=C/c2c(C(=O)/C=C/c3ccccc3)c(C)nc3ccccc23)cc1,6.34 µM,2.12 µM

# System: SR leukemia
# Assay: inhibition of tumour cell growth, NCI panel, 48 h
SMILES,TGI,GI50
Oc1c(N2CCOCC2)cc(-c2cc(N3CCOCC3)c(O)c3ccccc23)c2ccccc12,2.29 µM,–
C=C(C)[C@@H]1CC[C@]2(CO)CC[C@]3(C)[C@H](CC[C@@H]4[C@@]5(C)C=C(C#N)C(=O)C(C)(C)[C@@H]5CC[C@]43C)[C@@H]12,6.01 µM,1.53 µM
S=c1ssc(N2CCOCC2)c1Cl,65.9 µM,13.3 µM
COc1ccc(/C=C/c2c(C(=O)/C=C/c3ccccc3)c(C)nc3ccccc23)cc1,7.19 µM,1.56 µM

# System: MOLT-4 leukemia
# Assay: inhibition of tumour cell growth, NCI panel, 48 h
SMILES,GI50,TGI
S=c1ssc(N2CCOCC2)c1Cl,31.8 µM,> 100 µM
COc1ccc(/C=C/c2c(C(=O)/C=C/c3ccccc3)c(C)nc3ccccc23)cc1,1.33 µM,5.69 µM
CCOC(=O)CNC(=O)C(Cc1ccccc1)NC(=O)C(N)CC(=O)O (stereo not drawn) (H-Asp-Phe-Gly-OEt; configuration not given here),23.7 µg/mL,–

# System: SK-MEL-28 melanoma
# Assay: inhibition of tumour cell growth, NCI panel, 48 h
SMILES,GI50,TGI
S=c1ssc(N2CCOCC2)c1Cl,38.2 µM,57.9 µM
COc1ccc(/C=C/c2c(C(=O)/C=C/c3ccccc3)c(C)nc3ccccc23)cc1,1.88 µM,3.47 µM

# System: ACHN renal
# Assay: inhibition of tumour cell growth, NCI panel, 48 h
SMILES,TGI,GI50
Oc1c(N2CCOCC2)cc(-c2cc(N3CCOCC3)c(O)c3ccccc23)c2ccccc12,11 µM,–
C=C(C)[C@@H]1CC[C@]2(CO)CC[C@]3(C)[C@H](CC[C@@H]4[C@@]5(C)C=C(C#N)C(=O)C(C)(C)[C@@H]5CC[C@]43C)[C@@H]12,4.77 µM,1.72 µM
S=c1ssc(N2CCOCC2)c1Cl,> 100 µM,78.5 µM
COc1ccc(/C=C/c2c(C(=O)/C=C/c3ccccc3)c(C)nc3ccccc23)cc1,3.1 µM,1.68 µM

# System: SK-OV-3 ovarian
# Assay: inhibition of tumour cell growth, NCI panel, 48 h
SMILES,TGI,GI50
Oc1c(N2CCOCC2)cc(-c2cc(N3CCOCC3)c(O)c3ccccc23)c2ccccc12,51.9 µM,–
C=C(C)[C@@H]1CC[C@]2(CO)CC[C@]3(C)[C@H](CC[C@@H]4[C@@]5(C)C=C(C#N)C(=O)C(C)(C)[C@@H]5CC[C@]43C)[C@@H]12,6.12 µM,2.72 µM
S=c1ssc(N2CCOCC2)c1Cl,> 100 µM,28.1 µM
COc1ccc(/C=C/c2c(C(=O)/C=C/c3ccccc3)c(C)nc3ccccc23)cc1,9.54 µM,3.13 µM

# System: MDA-MB-231 breast
# Assay: inhibition of tumour cell growth, NCI panel, 48 h
SMILES,TGI,GI50
Oc1c(N2CCOCC2)cc(-c2cc(N3CCOCC3)c(O)c3ccccc23)c2ccccc12,> 100 µM,–
C=C(C)[C@@H]1CC[C@]2(CO)CC[C@]3(C)[C@H](CC[C@@H]4[C@@]5(C)C=C(C#N)C(=O)C(C)(C)[C@@H]5CC[C@]43C)[C@@H]12,4.82 µM,1.56 µM
S=c1ssc(N2CCOCC2)c1Cl,> 100 µM,26.6 µM
COc1ccc(/C=C/c2c(C(=O)/C=C/c3ccccc3)c(C)nc3ccccc23)cc1,7.87 µM,2.43 µM

# System: SNB-19 CNS
# Assay: inhibition of tumour cell growth, NCI panel, 48 h
SMILES,TGI,GI50
Oc1c(N2CCOCC2)cc(-c2cc(N3CCOCC3)c(O)c3ccccc23)c2ccccc12,16.6 µM,–
C=C(C)[C@@H]1CC[C@]2(CO)CC[C@]3(C)[C@H](CC[C@@H]4[C@@]5(C)C=C(C#N)C(=O)C(C)(C)[C@@H]5CC[C@]43C)[C@@H]12,4.08 µM,1.58 µM
S=c1ssc(N2CCOCC2)c1Cl,> 100 µM,> 100 µM
COc1ccc(/C=C/c2c(C(=O)/C=C/c3ccccc3)c(C)nc3ccccc23)cc1,3.07 µM,1.66 µM

# System: OVCAR-4 ovarian
# Assay: inhibition of tumour cell growth, NCI panel, 48 h
SMILES,GI50,TGI
C=C(C)[C@@H]1CC[C@]2(CO)CC[C@]3(C)[C@H](CC[C@@H]4[C@@]5(C)C=C(C#N)C(=O)C(C)(C)[C@@H]5CC[C@]43C)[C@@H]12,0.769 µM,5.11 µM
S=c1ssc(N2CCOCC2)c1Cl,> 100 µM,> 100 µM
